Source: US12414919B2, “Method for preparing biocompatible polymer-based apixaban-loaded microspheres” (HLB PHARMACEUTICAL CO., LTD., priority 2019, dated 2025)

How the values were obtained:
[1] = oral administration; cited from earlier work
[2] = Dissolution of Apixaban in halogen organic solvent (dichloromethane); assay type: physicochemical; settings: 25 mg Apixaban in 1 mL dichloromethane, after 12 hours
Procedure: 25 mg of Apixaban was dissolved in 1 mL, of dichloromethane, and the mixture was photographed after 12 hours.

[3] = Dissolution of Apixaban in non-halogen organic solvents; assay type: physicochemical; settings: 25 mg Apixaban in 1 mL of each of ethyl acetate, ethyl formate, methyl propionate, ethanol; stirred
Procedure: 25 mg of Apixaban was added to 1 mL of each of ethyl acetate, ethyl formate, methyl propionate, and ethanol and stirred. As a result, it was confirmed that Apixaban was not dissolved in the four organic solvents (FIG. 1).

## COc1ccc(-n2nc(C(N)=O)c3c2C(=O)N(c2ccc(N4CCCCC4=O)cc2)CC3)cc1 [Apixaban]
[1]
  bioavailability: about 50%
[2]
  Dissolution / recrystallization of Apixaban in dichloromethane: Apixaban crystals were formed
[3]
  Dissolution of Apixaban in non-halogen organic solvents: not dissolved
